Measurements taken from ChEMBL document CHEMBL3797109, “Biochemometrics for Natural Products Research: Comparison of Data Analysis Approaches and Application to Identification of Bioactive Compounds” (2016).
Values after ≈ are worked out from the molar mass of the structure shown.

Key:
Staphylococcus aureus [1] = assay: Antimicrobial activity against Staphylococcus aureus SA1199 after 24 hrs by CLSI method; assay type: functional; settings: SA1199, 24 h
Staphylococcus aureus [2] = assay: Antimicrobial activity against methicillin-resistant Staphylococcus aureus USA300 LAC AH1263 after 24 hrs by CLSI method; assay type: functional; settings: USA300 LAC AH1263, 24 h

SMILES	MIC (Staphylococcus aureus [1])	MIC (Staphylococcus aureus [2])
COc1ccc2cc3[n+](cc2c1OC)CCc1cc2c(cc1-3)OCO2 [BERBERINE]	446 µM	446 µM
COc1cc(O)c2c(=O)oc3cc(O)cc(C)c3c2c1	275 µM (≈ 74.9 µg/mL)	–
C[C@@H]1OC(=O)/C=C/[C@@H](O)[C@H](C)OC(=O)C[C@H](C)OC(=O)/C=C/[C@H]1O	219 µM (≈ 75 µg/mL)	–
